Bridge positions count the residues as written; N and C are the ends. Peptide text beside a SMILES is read from it.
Experiments:
Format in all cases: cell-based
[1] = target: T1, Kv1.3/E346A (Homo sapiens, UniProt P22001, E346A); test: Whole-cell patch clamp, Kv1.3 alanine mutant
T1 construct: expressed in transfected cells; host or cells: CHO-K1
Description: (§1) MrVIII inhibits Kv1 channels by stabilizing the voltage sensor in its resting state. […] To investigate this hypothesis, we constructed a series of alanine mutants in the S3-S4 region of the Kv1.3 channel, covering residues I336 to L363, to identify critical interactions between the peptide and the channel (Fig. 6A). […] For the remaining mutants that retained functional current expression, we evaluated the inhibitory activity of 100 nM MrVIII. […] The lack of conserved multiple interaction sites may explain the absence of activity on other Kv subfamily channels (Fig. S3). In summary, this study identified key amino acid residues in the S3-S4 region of the Kv1.3 channel that interact with MrVIII, providing a foundation for further exploration into the peptide's mechanism of action.
(§2) The cDNA of hKv1.1, hKv1.2, hKv1.3, rKv1.4, hKv1.5, mKv1.6, and hKv1.7 were subcloned into mammalian expression vectors pcDNA3.1 or pCMV-blank vectors, as well as other plasmids described previously ([35]). Channel mutants were generated by site-directed mutations. Briefly, the parental channel plasmid was amplified using a pair of oppositely directed primers harboring the designed mutation site, with KOD Fx (TOYOBO Co, Ltd). The resulting PCR mix was treated with FastDigest DpnI (Thermo Fisher Scientific) to remove the methylated template. Ten microliters of the digested product was then used to transform 100 μl E. coli DH5α competent cells. Transformants were randomly picked and sequenced to confirm the presence of the intended mutation.
(§3) CHO-K1 cells were selected for expressing Kv channels due to their lack of endogenous Kv channels, while HEK293 or ND7/23 cells were used for Nav and Cav channel expression. CHO-K1 cells were cultured in a Dulbecco's modified Eagle's medium/Ham's F-12 nutrient mixture (DMEM-F12) medium, and HEK293T and ND7/23 cells in DMEM medium, all supplemented with 10% fetal bovine serum and 1% penicillin-streptomycin (all from Gibco, Thermo Fisher Scientific, Inc) under standard conditions (37 °C, 5% CO2, and saturated humidity). These cell lines were purchased from Stem Cell Bank, Chinese Academy of Sciences. Channel plasmids were cotransfected with pEGFP-N1 (encoding GFP) into the respective cells using lipofectamine 2000, following the manufacturer's instructions (Invitrogen, Thermo Fisher Scientific, Inc.). Nav1.9-GFP plasmid was transfected into ND7/23 using the X-tremeGENE HP DNA Transfection Reagent (Roche). After 4 to 6 h transfection, cells were seeded onto poly-lysine–coated coverslips, and 24 to 36 h later, transfected cells were ready for patch-clamp analysis.
(§4) Patch clamp experiments were conducted using an electrophysiology platform comprising a MultiClamp 700B amplifier and an Axon Digidata 1550 AD/DA convertor (Axon Instruments). Data acquisition was performed with pClamp 10.5 software (Axon Instruments). All experiments were performed at room temperature.
(§5) For Kv current recordings, the bath solution contained (in mM) the following: 140 NaCl, 5 KCl, 1 MgCl2, 2 CaCl2, 10 glucose, and 10 Hepes (pH 7.3, adjusted with NaOH), and the pipette solution contained (in mM) the following: 140 KCl, 2.5 MgCl2, 11 EGTA, and 10 Hepes (pH 7.3, adjusted with KOH). Series resistance was maintained below 10 MΩ and compensated to 80%. Concentration–response curves were fitted by the Hill equation to determine the toxin's potency. Whole cell conductance (G) at each depolarizing voltage (V) was determined using the equation: G = I/(V−Vrev), where I is the current amplitude, and Vrev is the reversal potential. The reversal potential for K^+ current was estimated to be −85.6 mV using the Nernst equation. G-V curves were obtained by plotting the normalized conductance as a function of V and fitted by the Boltzmann equation: y = 1/(1+ exp((Va-V)/k)), which Va is the midpoint voltage, V is the test potential, and k is the slope factor. The steady-state fast inactivation of Kv1.3 was measured using a two-pulses protocol. […]

[2] = target: T2, Kv1.3/L347A (Homo sapiens, UniProt P22001, L347A); test: Whole-cell patch clamp, Kv1.3 alanine mutant
T2 construct: expressed in transfected cells; host or cells: CHO-K1
Description: as §1, §2, §3, §4, §5

[3] = target: T3, Kv1.3/I341A (Homo sapiens, UniProt P22001, I341A); test: Whole-cell patch clamp, Kv1.3 alanine mutant
T3 construct: expressed in transfected cells; host or cells: CHO-K1
Description: as §1, §2, §3, §4, §5

[4] = target: T4, Kv1.3/T342A (Homo sapiens, UniProt P22001, T342A); test: Whole-cell patch clamp, Kv1.3 alanine mutant
T4 construct: expressed in transfected cells; host or cells: CHO-K1
Description: as §1, §2, §3, §4, §5

[5] = target: T5, Kv1.3/L360A (Homo sapiens, UniProt P22001, L360A); test: Whole-cell patch clamp, Kv1.3 alanine mutant
T5 construct: expressed in transfected cells; host or cells: CHO-K1
Description: as §1, §2, §3, §4, §5

[6] = target: T6, Kv1.2/Y266A (Homo sapiens, UniProt P16389, Y266A); test: Whole-cell patch clamp, Tyr-to-Ala mutant homologous to Kv1.3 Y339; settings: +30 mV, mean ± SD, n = 4–6
T6 construct: expressed in transfected cells; host or cells: CHO-K1
Source text: Building on the identification of key amino acid residues in Kv1.3 channel that interact with MrVIII through alanine-scanning mutagenesis, we extended our analysis to explore these residues across other Kv1 subfamily channels. […] However, MrVIII retained substantial inhibitory potency on Kv1.2/Y266A mutant, albeit without fully blocking the channel current. […] The profound reduction in MrVIII's effect across homologous mutants supports the idea that it binds to a conserved region.
as §2, with “Ten microliters of the digested product was then used to transform 100 μl E. coli DH5α competent cells. Transformants were randomly picked and sequenced to confirm the presence of the intended mutation.” left out
CHO-K1 cells were selected for expressing Kv channels due to their lack of endogenous Kv channels, while HEK293 or ND7/23 cells were used for Nav and Cav channel expression. […] After 4 to 6 h transfection, cells were seeded onto poly-lysine–coated coverslips, and 24 to 36 h later, transfected cells were ready for patch-clamp analysis. […]

[7] = 100 nM MrVIII on mutant compared with 10 nM on WT Kv1.3, +30 mV, n = 4–7

T4 sequence (P22001 whole entry T342A): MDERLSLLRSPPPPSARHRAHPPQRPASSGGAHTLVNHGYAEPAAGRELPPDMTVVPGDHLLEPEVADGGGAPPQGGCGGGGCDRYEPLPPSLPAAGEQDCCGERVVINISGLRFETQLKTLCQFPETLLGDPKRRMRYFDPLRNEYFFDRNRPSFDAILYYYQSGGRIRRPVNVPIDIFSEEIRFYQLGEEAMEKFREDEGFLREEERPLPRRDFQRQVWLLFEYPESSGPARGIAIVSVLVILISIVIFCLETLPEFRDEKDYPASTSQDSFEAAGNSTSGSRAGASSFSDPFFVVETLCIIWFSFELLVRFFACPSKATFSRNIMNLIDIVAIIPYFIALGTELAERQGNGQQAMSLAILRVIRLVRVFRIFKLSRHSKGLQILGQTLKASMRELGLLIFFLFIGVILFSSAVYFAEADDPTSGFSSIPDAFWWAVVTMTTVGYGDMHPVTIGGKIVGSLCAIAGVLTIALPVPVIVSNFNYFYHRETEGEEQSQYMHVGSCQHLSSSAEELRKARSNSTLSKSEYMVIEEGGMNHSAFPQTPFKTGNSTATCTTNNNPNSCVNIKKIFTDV
T5 sequence (P22001 whole entry L360A): as the sequence (P22001 whole entry T342A) above, with A342T, L360A counted along it
T6 sequence (P16389 whole entry Y266A): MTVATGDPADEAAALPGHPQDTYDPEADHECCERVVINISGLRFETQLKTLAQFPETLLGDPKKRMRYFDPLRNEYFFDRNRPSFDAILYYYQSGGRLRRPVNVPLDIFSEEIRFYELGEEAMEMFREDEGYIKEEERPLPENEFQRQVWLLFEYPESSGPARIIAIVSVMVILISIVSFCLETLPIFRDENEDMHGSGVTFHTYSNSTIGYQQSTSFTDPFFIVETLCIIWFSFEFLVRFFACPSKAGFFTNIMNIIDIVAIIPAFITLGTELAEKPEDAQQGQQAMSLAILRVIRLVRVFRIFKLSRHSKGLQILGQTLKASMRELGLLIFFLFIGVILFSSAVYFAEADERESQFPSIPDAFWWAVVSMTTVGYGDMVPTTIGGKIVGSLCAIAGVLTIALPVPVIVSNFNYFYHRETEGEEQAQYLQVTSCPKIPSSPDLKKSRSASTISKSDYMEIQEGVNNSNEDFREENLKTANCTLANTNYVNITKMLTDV
T3 sequence (P22001 whole entry I341A): as the sequence (P22001 whole entry T342A) above, with I341A, A342T counted along it
T2 sequence (P22001 whole entry L347A): as the sequence (P22001 whole entry T342A) above, with A342T, L347A counted along it
T1 sequence (P22001 whole entry E346A): as the sequence (P22001 whole entry T342A) above, with A342T, E346A counted along it

Q: With `CC[C@H](C)[C@@H]1NC(=O)[C@H](Cc2ccc(O)cc2)NC(=O)[C@H](CCC(N)=O)NC(=O)[C@@H]2CCCN2C(=O)[C@@H]2CSSC[C@H](NC(=O)[C@H](C)NC(=O)[C@H](CO)NC(=O)[C@H](CCC(=O)O)NC(=O)[C@H](CCC(=O)O)NC(=O)[C@@H](N)[C@@H](C)O)C(=O)NCC(=O)NCC(=O)N[C@@H](Cc3ccccc3)C(=O)N[C@@H](CC(N)=O)C(=O)N[C@@H](C)C(=O)N[C@@H](CCCNC(=N)N)C(=O)N[C@H]3CSSC[C@H](NC1=O)C(=O)N[C@@H](CCCCN)C(=O)NCC(=O)N[C@@H](Cc1c[nH]c4ccccc14)C(=O)N[C@@H](CCCNC(=N)N)C(=O)N[C@@H]([C@@H](C)O)C(=O)N[C@@H](CCCCN)C(=O)N[C@@H](CCCNC(=N)N)C(=O)N[C@H](C(=O)N[C@@H](CC(C)C)C(=O)N[C@@H](CC(N)=O)C(=O)N1CCC[C@H]1C(=O)O)CSSC[C@H](NC(=O)[C@H](CCCCN)NC(=O)[C@H](Cc1c[nH]cn1)NC(=O)[C@H](CC(C)C)NC(=O)[C@@H]1CCCN1C3=O)C(=O)N2` [MrVIII] (H-TEESACGGFNARCPLHKCCPQYICKGWRTKRCLNP-OH; disulfide 6-19, 13-24, 18-32; N-terminus and C-terminus assumed) as the molecule, how does the “decrease of inhibitory potency vs WT Kv1.3, E346A” value [1, 7] read?
A: more than 10 fold

Q: And the IC50 ([1]; +30 mV, 500 ms, mean ± SD, n = 4–6, SD, read-out: IC50, Kv1.3/E346A current)?
A: 51.1 ± 21.1 nM

Q: What about the “decrease of inhibitory potency vs WT Kv1.3, L347A” value [2, 7] of the same molecule?
A: more than 10 fold

Q: What about the IC50 ([2]; +30 mV, 500 ms, mean ± SD, n = 4–6, SD, read-out: IC50, Kv1.3/L347A current) of the same molecule?
A: 85.7 ± 41.3 nM

Q: What about the “decrease of inhibitory potency vs WT Kv1.3, I341A” value [3, 7] of the same molecule?
A: more than 10 fold

Q: What about the IC50 ([3]; +30 mV, 500 ms, mean ± SD, n = 4–6, SD, read-out: IC50, Kv1.3/I341A current) of the same molecule?
A: 41 ± 26.3 nM

Q: What about the “decrease of inhibitory potency vs WT Kv1.3, T342A” value [4, 7] of the same molecule?
A: more than 10 fold

Q: And the IC50 ([4]; current at 50 ms, +30 mV, mean ± SD, n = 4–6, SD)?
A: 143 ± 38.2 nM

Q: What about the “inhi%(495 ms), Kv1.3/T342A current” value ([4]; current at 495 ms, +30 mV, mean ± SD, n = 4–6, SD) of the same molecule?
A: 27.7 ± 12.9%

Q: What about the “decrease of inhibitory potency vs WT Kv1.3, L360A” value [5, 7] of the same molecule?
A: more than 10 fold

Q: And the IC50 ([5]; +30 mV, 500 ms, mean ± SD, n = 4–6, SD, read-out: IC50, Kv1.3/L360A current)?
A: 148 ± 60.4 nM

Q: And the IC50 ([6]; current at 50 ms)?
A: 418 ± 41.2 nM

Q: And the “inhi%(495 ms), Kv1.2/Y266A current” value ([6]; current at 495 ms)?
A: 36.9 ± 14.1%
